Reference: patent publication US20090181948A1, “DIAMINE DERIVATIVE” (KYOWA HAKKO KOGYO CO., LTD., priority 2005, published 2009)

What was measured:
histamine H3 receptor [1] = target: T1, histamine H3 receptor (Rattus norvegicus, UniProt Q9QYN8); test: Histamine H3 receptor binding assay ([3H]-Nα-methylhistamine binding to rat striatum homogenate); details: 1 μmol/L test compound; [3H]-Nα-methylhistamine 1 nmol/L; striata of Sprague-Dawley male rats, 25° C., 1 hour; read-out: Inhibition ratio of [3H]-Nα-methylhistamine binding
T1 construct: from tissue; host or cells: rat striatum (Sprague-Dawley, male, 6 weeks), membrane homogenate
T1 sequence (Q9QYN8 whole entry): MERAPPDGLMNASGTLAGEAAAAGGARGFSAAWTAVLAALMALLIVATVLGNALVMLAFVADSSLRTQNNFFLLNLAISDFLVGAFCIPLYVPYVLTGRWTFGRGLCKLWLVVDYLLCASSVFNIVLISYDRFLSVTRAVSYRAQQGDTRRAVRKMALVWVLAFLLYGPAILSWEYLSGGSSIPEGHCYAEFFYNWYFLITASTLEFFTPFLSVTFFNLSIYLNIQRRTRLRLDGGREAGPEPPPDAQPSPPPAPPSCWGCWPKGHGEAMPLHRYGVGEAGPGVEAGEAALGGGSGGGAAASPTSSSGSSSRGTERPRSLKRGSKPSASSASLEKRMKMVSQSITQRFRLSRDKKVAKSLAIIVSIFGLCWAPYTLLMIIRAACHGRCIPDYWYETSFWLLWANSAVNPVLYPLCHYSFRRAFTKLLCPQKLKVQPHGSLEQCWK
How it was run: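 Rat striatum membranes (20 μg protein) incubated with [3H]-Nα-methylhistamine 1 nmol/L in 50 mmol/L Tris/HCl pH 7.4, 5 mmol/L EDTA, 1 hour at 25° C; bound ligand by filtration and scintillation counting. Nonspecific binding defined with 10 μmol/L thioperamide; % inhibition reported at 1 μmol/L compound.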

histamine H3 receptor [2] = target: T1, histamine H3 receptor; test: Inhibitory effect on histamine release suppressive action of histamine H3 receptor agonist (Nα-methylhistamine) in rat forebrain synaptosomes; assay type: biochemical; details: 1 μmol/L test compound and 1 μmol/L Nα-methylhistamine, potassium 30 mmol/L stimulation, read-out: Inhibition ratio of the [3H]-histamine release suppressive action of Nα-methylhistamine
Protocol: To the forebrains of Sprague-Dawley male rats (6 to 8 weeks of age), a 30-fold volume of a 0.32 mol/L aqueous sucrose solution was added and the forebrains were homogenized. The resulting homogenate was centrifuged (1,000×g, 4° C., 10 min), and to the obtained supernatant, an equivalent volume of Krebs-Ringer solution [120 mmol/L sodium chloride, 0.8 mmol/L potassium chloride, 2.6 mmol/L calcium chloride, 0.67 mmol/L magnesium sulfate, 1.2 mmol/L potassium dihydrogen phosphate, 27.5 mmol/L sodium bicarbonate, 10 mmol/L glucose (pH 7.3)] was added, and the resulting mixture was centrifuged (10,000×g, 4° C., 15 min). To the obtained precipitate, a 15-fold volume of Krebs-Ringer solution was added to suspend the precipitate. Then, the concentration of protein in the resulting tissue homogenate (synaptosomes) was measured and used for a test.
To the synaptosomes (300 μg in terms of protein amount) prepared by the above-described method, a [^3H]-histidine solution [final concentration: […] (740 kBq)/mL]: 6 μl of a 37 MBq/mL (specific activity: […]) solution] was added, and the total volume was adjusted to 300 μL with Krebs-Ringer solution. Then, the resulting mixture was incubated at 37° C. for 30 minutes and centrifuged (10,000×g, 25° C., 3 min). To the resulting precipitate (synaptosomes), 300 μL of Krebs-Ringer solution was added, and the mixture was incubated at 37° C. for 5 minutes and centrifuged (10,000×g, 25° C., 3 min). This procedure was repeated 5 times, whereby washing of synaptosomes was carried out. The resulting synaptosomes were suspended in 100 μL of Krebs-Ringer solution, and the resulting suspension was used for the following procedure.
A test compound and N^α-methylhistamine were separately dissolved in Krebs-Ringer solution to give a concentration of 20 μmol/L (the resulting mixtures were referred to as a test compound solution and a N^α-methylhistamine solution, respectively). To 100 μL of the above-described suspended synaptosomes (300 μg in terms of protein amount), 140 μL of Krebs-Ringer solution was added. Then, 30 μL of the test compound solution and 30 μL of the N^α-methylhistamine solution were added thereto, and the resulting mixture was incubated at 37° C. for 2 minutes. Then, an equivalent volume of a stimulating solution [64 mmol/L sodium chloride, 56.8 mmol/L potassium chloride, 2.6 mmol/L calcium chloride, 0.67 mmol/L magnesium sulfate, 1.2 mmol/L potassium dihydrogen phosphate, 27.5 mmol/L sodium bicarbonate, 10 mmol/L glucose (pH 7.3)] (final potassium concentration: 30 mmol/L) was added, and the resulting mixture was incubated at 37° C. for 2 minutes to release [^3H]-histamine. The reaction mixture was centrifuged (10,000×g, 25° C., 3 min), and the obtained supernatant was passed through Amberlite CG-50 column (250 μL), and the non-adsorbed fractions were discarded. Then, 2 mL of 50 mmol/L [[…]]/hydrochloric acid (HCl) (pH 7.5) (Tris) was passed through the column 3 times, and 2 mL of distilled water, and 1.5 mL of a 0.2 mol/L aqueous sodium hydroxide solution were passed through the column in this order, and the eluted fractions were discarded. Then, 2 mL of a 0.2 mol/L aqueous sodium hydroxide solution was passed through the column, and the eluted fraction was recovered in a scintillation vial. Then, 8 mL of Ultimagold (Perkin Elmer) was added to the recovered eluted solution, and the radioactivity ([^3H]-histamine) was measured using a liquid scintillation counter. The inhibitory action of the test compound on the histamine release suppressive action of N^α-methylhistamine was evaluated by obtaining the inhibition ratio to the histamine release suppressive action in the presence of 1 μmol/L No-methylhistamine and 1 μmol/L of the test compound. The inhibition ratio of the [^3H]-histamine release suppressive action was calculated using the following Equation (2). […]

inhibition at 1 µM (histamine H3 receptor [1]): ≥ 80%
melting point: 104 to 106 °C
inhibition at 1 µM (histamine H3 receptor [2]): ≥ 70%
Structure (SMILES): N#CC(C#N)=C1N(CCCN2CCOCC2)CCN1C1CCN(C2CC2)CC1 [Compound 235, [1-(1-Cyclopropylpiperidin-4-yl)-3-(3-morpholinopropyl)imidazolidin-2-ylidene]malononitrile]
